In patent US7214771B2, “Nucleic acid and protein expression thereby and their involvement in stress” (University of Medicine & Dentistry of New Jersey, priority 1999, dated 2007):

What was measured:
[1] = tested on: human bladder cancer and human testicular embryonal germ cell carcinoma; settings: simultaneous cisplatin and dipyridamole; high concentrations of dipyridamole; cited from earlier work
[2] = tested on: human ovarian cancer cells; settings: cited from earlier work
RIAZ = experiment: Localization of GFP/RIAZ in HTB-46 cells cotransfected with RIα (fluorescence microscopy); assay type: cell-based, human; settings: HTB-46 cells cotransfected with RIα and GFP/RIAZ; cAMP for 8 hr
Experimental: FIG. 10 depicts the effect of RIα and cAMP on localization of RIAZ. GJP fusions at the N-terminus (GFP/RIAZ) and the C-terminus (RIAZ/GFP) were generated. […] Localization of GFP/RIAZ on co-transfection with RIα is redistributed to the nucleus on addition of cAMP(Panel D). In more detail, nuclear localization of RIAZ and regulation of its localization by RIα in the presence or absence of cAMP was performed as follows: (A,B) HTB-46 cells were plated the night before and then transfected with GFP/RIAZ the following day. Localization of RIAZ was visualized 24 hr after transfection using a fluorescence microscope. (C) HTB-46 cells were cotransfected with RIα and GFP/RIAZ in the absence of cAMP. (D) RIAZ distribution after addition of cAMP for 8 hr.
To further understand the mechanisms of interaction of RIα with RIAZ, we constructed a hybrid protein between RIAZ and the green fluorescence protein (GFP), with GFP fused to either the N-terminal (GFP/RIAZ) or the C-terminal (RIAZ/GFP) end of RIAZ. Distribution of RIAZ was visualized using a Zeiss Axioskop fluorescence microscope. […] Even though the nuclear localization of RIAZ was not affected by the position of GFP either at the amino or the carboxy terminal end of RIAZ, however, whether the transcriptional activity of RIAZ may be affected remains to be determined. […]

RIα = molecular target: T1, RIα (Homo sapiens, UniProt P10644); experiment: Binding of in vitro-translated RIAZ to immobilized GST-RIα (pull down); settings: [35S]methionine labeled RIAZ; GST as control
T1 construct: made in house; host or cells: E. coli (GST-RIα); RIAZ made by in vitro translation
Experimental: FIG. 8. Binding of in-vitro translated RIAZ protein to RIα. GST and GST-RIα proteins were immobilized on glutathione resins and then incubated with [^35S]methinine labeled RIAZ. The complexes were thoroughly washed and eluted in gel-loading buffer, separated by SDS-PAGE, and exposed to X-ray film.
Deletion of a cluster of ATG in the 5′ end of the RIAZ cDNA seemed to enhance translation from the putative ATG start codon of the open reading frame that encode the BTB-POZ domain zinc finger. […] In addition, based on the functions of other BTB-POZ zinc finger proteins in this family, which play various roles in apoptosis, transcription repression, and regulation of cell proliferation, we speculate that RIAZ may have a role in these important cellular functions. Since the emergence of drug resistance in cancer is also intimately influenced by apoptosis, alterations in cellular transcription programs and tumorigenesis, therefore, it is conceivable that RIα mediated drug resistance may be executed through the actions of RIAZ. Biochemical and molecular characterizations of the interaction of RIAZ with RI and its function and significance in drug resistance may yield insights into the mechanisms of this novel cAMP signaling pathway.

T1 sequence (P10644 whole entry): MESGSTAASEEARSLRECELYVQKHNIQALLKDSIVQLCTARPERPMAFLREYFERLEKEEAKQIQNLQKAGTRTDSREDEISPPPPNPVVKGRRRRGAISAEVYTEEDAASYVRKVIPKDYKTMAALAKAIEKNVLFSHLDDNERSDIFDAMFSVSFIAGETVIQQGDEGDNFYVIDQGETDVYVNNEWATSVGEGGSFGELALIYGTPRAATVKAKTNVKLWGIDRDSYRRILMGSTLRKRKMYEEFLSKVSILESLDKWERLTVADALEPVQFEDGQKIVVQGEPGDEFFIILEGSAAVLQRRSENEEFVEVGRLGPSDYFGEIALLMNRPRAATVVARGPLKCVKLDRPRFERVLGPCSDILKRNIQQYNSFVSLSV

Q: For `OCCN(CCO)c1nc(N2CCCCC2)c2nc(N(CCO)CCO)nc(N3CCCCC3)c2n1` [dipyridamole], which “tumor response in combination with cisplatin” value [1] is on record?
A: complete tumor regression

Q: What about the “effect on growth of cisplatin-resistant cells” value ([2]; dipyridamole treatment, cisplatin-resistant cells) of the same molecule?
A: did not affect the growth

Q: Which “RIAZ subcellular distribution after treatment” value (RIAZ) does the source give for `Nc1ncnc2c1nc(Br)n2[C@@H]1O[C@@H]2COP(=O)(O)O[C@H]2[C@H]1O` [8-Br-cAMP] here?
A: translocate to the nucleus

Q: For `CC(C)Cn1c(=O)n(C)c(=O)c2[nH]cnc21` [3-isobutyl-1-methylxanthine], which “effect on cisplatin sensitivity” value ([2]; treated ovarian carcinoma cells compared to untreated cells) is on record?
A: increase in cisplatin sensitivity

B1: RIAZ: novel BTB-POZ domain zinc finger protein of 641 amino acids, SEQ ID NO: 17 (protein, listed as Homo sapiens)
chain: MERVNDASCGPSGCYTYQVSRHSTEMLHNLNQQRKNGGRFCDVLLRVGDESFPAHRAVLAACSEYFESVFSAQLGDGGAADGGPADVGGATAAPGGGAGGSRELEMHTISSKVFGDILDFAYTSRIVVRLESFPELMTAAKFLLMRSVIEICQEVIKQSNVQILVPPARADIMLFRPPGTSDLGFPLDMTNGAALAANSNGIAGSMQPEEEAARAAGAAIAGQASLPVLPGVDRLPMVAGPLSPQLLTSPFPSVASSAPPLTGKRGRGRPRKANLLDSMFGSPGGLREAGILPCGLCGKVFTDANRLRQHEAQHGVTSLQLGYIDLPPPRLGENGLPISEDPDGPRKRSRTRKQVACEICGKIFRDVYHLNRHKLSHSGEKPYSCPVCGLRFKRKDRMSYHVRSHDGSVGKPYICQSCGKGFSRPDHLNGHIKQVHTSERPHKCQTCNASFATRDRLRSHLACHEDKVPCQVCGKYLRAAYMADHLKKHSEGPSNFCSICNREGQKCSHQDPIESSDSYGDLSDASDLKTPEKQSANGSFSCDMAVPKNKMESDGEKKYPCPECGSFFRSKSYLNKHIQKVHVRALGGPLGDLGPALGSPFSPQQNMSLLESFGFQIVQSAFASSLVDPEVDQQPMGPEGK
Q: With B1 as the molecule, how does the “binding to GST-RIα” value (RIα) read?
A: showed binding to GST-RIα but not to GST control
